According to patent US12702676B2, “Fosfomycin dosing regimens” (priority 2017, dated 2026):
Values after ≈ are worked out from the molar mass of the structure shown. Like-named read-outs stand apart in the source and are kept apart here.

Legend:
[1] = tested on: Raoultella ornithinolytica; assay: Case treated with the dosing scheme of the invention; format: in vivo; conditions: one case
Enterobacteriaceae [2] = assay: Non-clinical total-drug % T>RIC targets for efficacy
Text: Emphasis was placed on the assessment of PK-PD target attainment results for AUC:MIC ratio and % T>RIC targets associated with net bacterial stasis.

[3] = Population PK analysis of ZTI-01, pooled Phase 1 healthy subjects and Phase 2/3 cUTI/AP patients; format: in vivo, human; conditions: for Baseline CLcr50 / Hill coefficient: CL model
Text: Methods: Two clinical studies have been conducted as part of the development of ZTI-01: a Phase 1 study in healthy subjects (ZTI-01-NIH13-0064) and a Phase 2/3 study in hospitalized patients with complicated urinary tract infections (ZTI-01-200). A PPK model, originally developed using Phase 1 data and an empirical relationship between FOS clearance (CLt) and creatinine clearance (CLcr) [Microbe 2017 Abstr. P1134], was refined using pooled data from healthy subjects and patients with cUTI, including acute pyelonephritis.
The PPK model was developed in NONMEM 7.2. In the Phase 1 study, 28 healthy subjects who received ZTI-01 as single (1 and 8 g infused over 1 hour) IV doses in crossover fashion provided plasma and urine samples for FOS concentration determination over 24 hours. Patients from the Phase 2/3 study (ZEUS, NCT02753946) received ZTI-01 at 6 g every 8 hours, with dosage adjustment for patients with renal impairment (adjusted for CLcr≤50 mL/min). Blood samples for PK (n=5 per patient) were collected on Day 1 and on either Days 3, 4, or 5. Model development involved refinement of the previous CLt:CLcr relationship using the pooled data and a full covariate analysis to identify other patient descriptors associated with the interindividual variability (IIV) in FOS PK. Model qualification included standard goodness-of-fit metrics and visual predictive check plots.
For the PPK model refinement, previous structural population PK model was fit to the pooled Phase 1 and 2/3 data. Covariate analyses were conducted using forward selection and backward elimination. The final model was qualified using visual predictive checks and non-parametric bootstrap procedures. Individual, post-hoc fosfomycin exposures were calculated for each patient using predicted plasma fosfomycin concentration-time data for the first 48 hours of therapy.

[4] = tested on: acute pyelonephritis pathogens; conditions: Ode et al. study; dosing regimen 8 g bid; cited from earlier work
[5] = Pharmacokinetics in specific populations (hemodialysis, hepatic, demographics); format: in vivo, human
[6] = tested on: Enterobacteriaceae isolates; conditions: 1,021 Enterobacteriaceae isolates collected from US medical centers; cited from earlier work
[7] = tested on: Acinetobacter baumannii-calcoaceticus complex; assay: Case treated with the dosing regimen of the invention; format: in vivo; conditions: one case
Text: In addition to the above list, it was also observed that the dosing regimen of the present invention provided beneficial results for two uncommon and rarely treated strains. In one case, the dosing regimen of the present invention was used to administer appropriate dosages of fosfomycin, resulting in the eradication of the often resistant, Gram negative Acinetobacter baumannii-calcoaceticus complex.

Enterobacteriaceae [8] = conditions: cited from earlier work; for Total-drug AUC:MIC ratio target: Enterobacteriaceae; for Median total-drug AUC:MIC ratio target: neutropenic murine-thigh infection model (Lepak et al.)
[9] = 1-log10 CFU reduction from baseline
[10] = final population PK model estimate

For C[C@@H]1O[C@@H]1P(=O)(O)O [fosfomycin], the “outcome against Raoultella ornithinolytica” value [1] was “successfully eradicated”, the “Total-drug % T > RIC target” value (Enterobacteriaceae [2]; [9]) was 20.9% and the “Total-drug % T > RIC target” value (Enterobacteriaceae [2]; 2-log10 CFU reduction from baseline) was 32.8%. The “Total-drug % T > RIC target” value (Enterobacteriaceae [2]; Net bacterial stasis) was 11.9%, the “Baseline CLcr50” value ([3]; bootstrap mean (N = 200)) was 66.3 mL/min/1.73 m^2 and the Hill coefficient ([3]; bootstrap mean (N = 200)) was 2.6. The “Baseline CLcr50” value ([3]; bootstrap median (N = 200)) was 65.6 mL/min/1.73 m^2, the Hill coefficient ([3]; bootstrap median (N = 200)) was 2.59 and the “Baseline CLcr50” value [3, 10] was 65 mL/min/1.73 m^2. For the same compound, the Hill coefficient [3, 10] was 2.56, the “CLd1 Coefficient” value ([3]; bootstrap mean (N = 200)) was 4.36 L/h and the “CLd1 Proportional increase for AP and cUTI patients” value (shortened to “CLd1 Proportional increase”) ([3]; bootstrap mean (N = 200)) was 1.28. For the same compound, the “CLd2 Coefficient” value ([3]; bootstrap mean (N = 200)) was 0.351 L/h, the CLe maximum ([3]; bootstrap mean (N = 200)) was 9.02 L/h and the “Covariance between CL and Vc” value ([3]; bootstrap mean (N = 200)) was 0.0707. For the same compound, the “Covariance between CL and Vp1” value ([3]; bootstrap mean (N = 200)) was 0.134, the “Covariance between CLd1 and Vp1” value ([3]; bootstrap mean (N = 200)) was 0.173 and the “Plasma Residual variability (σ^2) CCV component” value (from here on “Plasma Residual variability”) ([3]; bootstrap mean (N = 200)) was 0.0196. The “Urine Residual variability (σ^2) CCV component” value (“Urine Residual variability” below) ([3]; bootstrap mean (N = 200)) was 0.0793, the “Vc Coefficient” value ([3]; bootstrap mean (N = 200)) was 17.7 L and the Vc-BSA power ([3]; bootstrap mean (N = 200)) was 1.72. For the same compound, the Vp1-BSA power ([3]; bootstrap mean (N = 200)) was 2.73, the “Vp1 Coefficient” value ([3]; bootstrap mean (N = 200)) was 6.11 L and the “Vp1 Proportional increase for AP and cUTI patients” value (from here on “Vp1 Proportional increase”) ([3]; bootstrap mean (N = 200)) was 0.721. For the same compound, the “Vp2 Coefficient” value ([3]; bootstrap mean (N = 200)) was 1.74 L, the “ω^2 for Vc” value ([3]; bootstrap mean (N = 200)) was 0.174 and the “ω^2 for Vp1” value ([3]; bootstrap mean (N = 200)) was 0.516. For the same compound, the “ω^2 tor CLd1” value ([3]; bootstrap mean (N = 200)) was 0.203, the “CLd1 Coefficient” value ([3]; bootstrap median (N = 200)) was 4.2 L/h and the “CLd1 Proportional increase” value ([3]; bootstrap median (N = 200)) was 1.15. For the same compound, the “CLd2 Coefficient” value ([3]; bootstrap median (N = 200)) was 0.346 L/h, the CLe maximum ([3]; bootstrap median (N = 200)) was 8.87 L/h and the “Covariance between CL and Vc” value ([3]; bootstrap median (N = 200)) was 0.0704. The “Covariance between CL and Vp1” value ([3]; bootstrap median (N = 200)) was 0.131, the “Covariance between CLd1 and Vp1” value ([3]; bootstrap median (N = 200)) was 0.166 and the “Plasma Residual variability” value ([3]; bootstrap median (N = 200)) was 0.0194. The “Urine Residual variability” value ([3]; bootstrap median (N = 200)) was 0.079, the “Vc Coefficient” value ([3]; bootstrap median (N = 200)) was 17.7 L and the Vc-BSA power ([3]; bootstrap median (N = 200)) was 1.7. The Vp1-BSA power ([3]; bootstrap median (N = 200)) was 2.73, the “Vp1 Coefficient” value ([3]; bootstrap median (N = 200)) was 6.03 L and the “Vp1 Proportional increase” value ([3]; bootstrap median (N = 200)) was 0.706. For the same compound, the “Vp2 Coefficient” value ([3]; bootstrap median (N = 200)) was 1.72 L, the “ω^2 for Vc” value ([3]; bootstrap median (N = 200)) was 0.172 and the “ω^2 for Vp1” value ([3]; bootstrap median (N = 200)) was 0.508. The “ω^2 tor CLd1” value ([3]; bootstrap median (N = 200)) was 0.199, the “CLd1 Coefficient” value [3, 10] was 4.15 L/h and the “CLd1 Proportional increase” value [3, 10] was 1.24. For the same compound, the “CLd2 Coefficient” value [3, 10] was 0.349 L/h, the CLe maximum [3, 10] was 8.87 L/h and the “Covariance between CL and Vc” value [3, 10] was 0.07213. For the same compound, the “Covariance between CL and Vp1” value [3, 10] was 0.1296, the “Covariance between CLd1 and Vp1” value [3, 10] was 0.1853 and the “Plasma Residual variability” value [3, 10] was 0.0195. The “Urine Residual variability” value [3, 10] was 0.0795, the “Vc Coefficient” value [3, 10] was 17.6 L and the Vc-BSA power [3, 10] was 1.76. For the same compound, the Vp1-BSA power [3, 10] was 2.72, the “Vp1 Coefficient” value [3, 10] was 5.99 L and the “Vp1 Proportional increase” value [3, 10] was 0.729. For the same compound, the “Vp2 Coefficient” value [3, 10] was 1.73 L, the “ω^2 for Vc” value [3, 10] was 0.175 and the “ω^2 for Vp1” value [3, 10] was 0.502. The “ω^2 tor CLd1” value [3, 10] was 0.215, the Cmin ([3]; geometric mean, infected Phase 2/3 patients (n = 214), ZTI-01-200, population PK model fit) was 30.0 µg/mL and the Cmax ([3]; human, in vivo, 6 g, geometric mean, infected Phase 2/3 patients (n = 214), ZTI-01-200, population PK model fit) was 364 µg/mL. For the same compound, the clearance ([3]; human, in vivo, 6 g, geometric mean, infected Phase 2/3 patients (n = 214), ZTI-01-200, population PK model fit, read-out: CL (converted)) was 99.7 mL/min, the Vd ([3]; human, in vivo, 6 g, geometric mean, infected Phase 2/3 patients (n = 214), ZTI-01-200, population PK model fit, read-out: VSS) was 30.9 L and the half-life ([3]; human, in vivo, 6 g, geometric mean, infected Phase 2/3 patients (n = 214), ZTI-01-200, population PK model fit, read-out: t1/2, α (converted)) was 0.402 h. The half-life ([3]; human, in vivo, 6 g, geometric mean, infected Phase 2/3 patients (n = 214), ZTI-01-200, population PK model fit, read-out: t1/2, β (converted)) was 2.67 h, the half-life ([3]; human, in vivo, 6 g, geometric mean, infected Phase 2/3 patients (n = 214), ZTI-01-200, population PK model fit, read-out: t1/2, γ (converted)) was 4.99 h and the AUC(0-t) ([3]; human, in vivo, 6 g, geometric mean, infected Phase 2/3 patients (n = 214), ZTI-01-200, doses by baseline renal function, population PK model fit, read-out: AUC0-24) was 2490 µg·h/mL. It also gave a clearance ([3]; human, in vivo, bootstrap mean (N = 200), read-out: Non-renal CL (converted)) of 27 mL/min, a clearance ([3]; human, in vivo, bootstrap median (N = 200), read-out: Non-renal CL (converted)) of 27.2 mL/min and a clearance ([3]; human, in vivo, final population PK model estimate, read-out: Non-renal CL (converted)) of 26.8 mL/min. The “effective (patients with AP)” value [4] was 44%, the “fosfomycin dose removed by hemodialysis” value ([5]; administered prior to hemodialysis in patients on periodic or chronic hemodialysis) was 61-79% and the “differences in pharmacokinetics based on sex, body weight/body surface area, race/ethnicity or age” value ([5]; age 18 to 89 years, adjusted for renal function) was “No clinically significant differences”. The “metabolism through the liver” value ([5]; in vivo) was “not metabolized through the liver”, the MIC50 [6] was 4 µg/mL (≈ 29 µM) and the MIC90 [6] was 16 µg/mL (≈ 116 µM). The “outcome against Acinetobacter baumannii-calcoaceticus complex” value [7] was “eradication”, the “Total-drug AUC:MIC ratio target” value (Enterobacteriaceae [8]; [9]) was 41.6 and the “Median total-drug AUC:MIC ratio target” value (Enterobacteriaceae [8]; 1 log10 CFU reduction from baseline) was 41.6. For the same compound, the “Total-drug AUC:MIC ratio target” value (Enterobacteriaceae [8]; Net bacterial stasis) was 19.1 and the “Median total-drug AUC:MIC ratio target” value (Enterobacteriaceae [8]; Net bacterial stasis) was 19.1.
